Where two headings read alike, the source gives them in different places.
Legend:
[1] = test system: KLE cells; experiment: Cell viability by WST-1 assay in KLE cells; type: cell-based; settings: Homo sapiens, pristimerin 72 hours
Description: (§1) Cell viability was determined by WST-1 assay. Cells were seeded into 96-well plates (1×10^4 cells per well) then treated with cisplatin (Fresenius Kabi Oncology Ltd, Haryana, India) or the combination of cisplatin with pristimerin in solution (Cayman Chemical, Ann Arbor, Mich.). Cell viability was evaluated using the cell proliferation reagent WST-1 (Roche, Germany) according to the manufacturer's protocol. The absorbance was measured with a micro-plate reader (BioRad). Data were calculated as percent (%) viability relative to untreated control, which was set at 100%.
as §1, with “Ltd.,” for “Ltd,”, “Absorbance” for “The absorbance”, “microplate” for “micro-plate”

[2] = target: P-glycoprotein (P-gp) efflux transporter (Homo sapiens, UniProt P08183); settings: not told; cited from earlier work
Sequence of P-glycoprotein (P-gp) efflux transporter (P08183 whole entry): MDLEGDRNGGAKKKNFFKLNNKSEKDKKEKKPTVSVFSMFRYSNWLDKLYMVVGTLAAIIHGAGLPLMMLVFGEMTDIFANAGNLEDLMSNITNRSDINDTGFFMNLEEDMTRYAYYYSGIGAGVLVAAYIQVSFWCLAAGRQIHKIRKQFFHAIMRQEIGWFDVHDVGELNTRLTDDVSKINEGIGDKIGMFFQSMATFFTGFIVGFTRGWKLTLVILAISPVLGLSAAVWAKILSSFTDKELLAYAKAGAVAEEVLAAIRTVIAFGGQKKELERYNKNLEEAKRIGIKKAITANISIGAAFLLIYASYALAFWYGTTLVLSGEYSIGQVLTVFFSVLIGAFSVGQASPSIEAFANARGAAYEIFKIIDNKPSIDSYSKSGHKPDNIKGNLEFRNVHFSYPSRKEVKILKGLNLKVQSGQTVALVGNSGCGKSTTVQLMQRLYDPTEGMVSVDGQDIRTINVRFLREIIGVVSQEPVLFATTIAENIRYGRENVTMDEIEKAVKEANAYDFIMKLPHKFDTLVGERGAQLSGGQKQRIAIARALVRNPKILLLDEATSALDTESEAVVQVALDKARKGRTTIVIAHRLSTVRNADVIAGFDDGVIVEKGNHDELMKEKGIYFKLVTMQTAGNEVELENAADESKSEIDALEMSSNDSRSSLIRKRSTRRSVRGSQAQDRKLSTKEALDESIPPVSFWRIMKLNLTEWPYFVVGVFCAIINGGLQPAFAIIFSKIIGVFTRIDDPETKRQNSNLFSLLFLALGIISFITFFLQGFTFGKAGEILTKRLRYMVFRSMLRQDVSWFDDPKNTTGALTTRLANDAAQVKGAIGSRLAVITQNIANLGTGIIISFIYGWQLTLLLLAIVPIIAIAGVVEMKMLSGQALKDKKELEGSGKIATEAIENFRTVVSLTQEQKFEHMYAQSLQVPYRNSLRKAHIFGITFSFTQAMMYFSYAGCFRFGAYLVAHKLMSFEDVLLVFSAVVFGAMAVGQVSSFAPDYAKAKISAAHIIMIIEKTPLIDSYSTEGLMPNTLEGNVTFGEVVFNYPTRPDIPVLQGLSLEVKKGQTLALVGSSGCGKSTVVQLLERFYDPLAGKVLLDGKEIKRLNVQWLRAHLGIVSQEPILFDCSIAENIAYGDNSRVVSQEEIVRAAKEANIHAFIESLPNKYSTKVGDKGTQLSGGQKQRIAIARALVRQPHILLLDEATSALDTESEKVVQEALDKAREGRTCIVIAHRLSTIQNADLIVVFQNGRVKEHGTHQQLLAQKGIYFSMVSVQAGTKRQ

[3] = Solubility and pharmacokinetics (statement); settings: pristimerin in solution
[4] = test system: Hec50 cells; experiment: Cell viability by WST-1 assay in Hec50 cells; type: cell-based; settings: pristimerin 72 hours
Description: as §1
as §1, with “Ltd.,” for “Ltd,”, “Absorbance” for “The absorbance”, “microplate” for “micro-plate”

[5] = test system: MDA-MB-231 cells; experiment: Cell viability by WST-1 assay in MDA-MB-231 cells; type: cell-based; settings: Homo sapiens, pristimerin 72 hours
Description: as §1
as §1, with “Ltd.,” for “Ltd,”, “Absorbance” for “The absorbance”, “microplate” for “micro-plate”

[6] = previous reported; cited from earlier work
[7] = test system: PDX1 tumors; experiment: Patient-derived xenograft (PDX1) model of endometrial cancer, tumor growth; type: in vivo; settings: PDX1 mice, twice a week for 4 weeks; compared to control PLGA nanoparticles (combination: compared to all other groups)
Description: Patient-derived xenograft (PDX) studies: A PDX model of endometrial cancer (PDX1) has been previously described (Luo et al., 2010). NOD.Cg-Prkdcscid Il2rgtm1Wjl/SzJ (NSG, Jackson Laboratories, Bar Harbor, Me.) immunodeficient female mice at 8 weeks of age were injected with passage 3 of PDX1 tumor tissue (10 mg/100 μl medium) into the right flank subcutaneously. The mice were randomly divided into 4 groups, with 5 mice per drug treated group, and 4 mice comprised the empty nanoparticle control group. Treatment was started on day 15 after engraftment of cells. The dose of pristimerin delivered in nanoparticles was 60 μg for each mouse and was administered by intravenous injection (IV) injection twice a week for a total of 4 weeks. The dose of cisplatin was […] for each mouse and was administered by intraperitoneal (IP) injection twice a week for a total of 4 weeks. After 2 weeks of treatment, tumors were measured weekly using calipers, and volumes were calculated using the formula length×width^2/2.
All animal studies were performed under animal protocols #7051085 approved by the University of Iowa Institutional Animal Care and Use Committee (Iowa City, Iowa). MTDH knockout mice were generated as described previously (Meng et al., 2015). […] After 2 weeks of treatment, tumors were measured weekly using calipers, and volumes were calculated using the formula […].

Question: Which results are given for `COC(=O)[C@]1(C)CC[C@]2(C)CC[C@]3(C)C4=CC=C5C(=CC(=O)C(O)=C5C)[C@]4(C)CC[C@@]3(C)[C@@H]2C1` [pristimerin, Pristimerin]?
Answer: IC50 [1]: < 1000 nM; substrate to P-gp [2]: substrate; solubility and pharmacokinetics [3]: poor; IC50 [4]: < 1000 nM; IC50 [5]: < 1000 nM

Question: Which solubility and pharmacokinetics [6] does the source give for `CC1=C(O)C(=O)C=C2C1=CC=C1[C@@]2(C)CC[C@@]2(C)[C@@H]3C[C@](C)(C(=O)O)CC[C@]3(C)CC[C@]12C` [celastrol] here?
Answer: The solubility and pharmacokinetics was “poor”.

Question: Which tumor growth [7] does the source give for `N.N.[Cl][Pt][Cl]` [cisplatin] here?
Answer: The tumor growth was “significantly inhibited”.

From patent US20220241214A1, “NAN[…] W METHIDES AND COMPOSITIONS FOR USE” (priority 2019, published 2022)
